Measured values from US20140255968A1, “METHOD FOR FABRICATING A PATTERNED SUBSTRATE FOR A CELL CULTURE, A PATTERNED SUBSTRATE FOR CELL CULTURE, AND A CELL CHIP” (RESEARCH & BUSINESS FOUNDATION SUNGKYUNKWAN UNIVERSITY, priority 2013, published 2014).
“Also recorded” adds a separate entry of the source. Read-outs that look alike come from different tables or passages of the source.

System: bovine aortic endothelial cells (BAECs)
Experiment: Angiogenesis assay on patterned cell chip
Assay type: cell-based
Method: In an angiogenesis assay using the fabricated substrate, bovine aortic endothelial cells (BAECs) were used. To prevent contamination, the substrate fabricated in Example 1-2 was placed in a Petri dish and irradiated with UV light for 16 hours prior to the test. BAEC cells were seeded in 2 ml of complete medium (low glucose DMEM (Dulbecco's Modified Eagle's Medium, WELGENE) containing 1× penicillin/streptomycine (WELGENE) and 20% fetal bovine serum (FBS, WELGENE)) at a cell concentration of 2.5×10^5 cells/ml, and then cultured in a 5% CO2 incubator at 37° C. for 6 hours. Next, the complete medium was replaced with the following media. • untreated plate (normal control group): 10 ml of low-glucose DMEM containing 1× penicillin/streptomycin and 0.2% FBS; • LPS (lipopolysaccharide)-treated plate (negative control group): 10 ml of low-glucose DMEM containing 1× penicillin/streptomycin, 0.2% FBS and 100 ng/ml of LPS; or • VEGF (vascular endothelial growth factor)-treated plate (positive control group): 10 ml of low-glucose DMEM containing 1× penicillin/streptomycin, 0.2% FBS and 100 ng/ml of VEGF. To prevent cells on the substrate from being dried due to evaporation of the media in the incubator, the volume of the media was increased to 10 ml, and to more accurately confirm the effect of the positive control group (VEGF-treated plate), starvation basic medium having a decreased FBS (a kind of growth factor) concentration of 0.2% was used.

[1] = 100 ng/ml in low-glucose DMEM with 0.2% FBS, 18 hours, optical microscope

Row | Substance | angiogenesis on the patterned cell chip compared with the untreated case [1] | number of cells in the regions between cell adsorbing H2/He plasma treated areas, compared with untreated [1] | angiogenesis on the patterned cell chip compared with the untreated case | formation of tube-shaped blood vessels [1]
1 | lipopolysaccharide [LPS] | angiogenesis was inhibited | significant decrease in the number of cells; also recorded: smaller number of cells |  | 
2 | vascular endothelial growth factor [VEGF] |  | proliferation of cells significantly increased; also recorded: significantly larger number of the cells | angiogenesis was induced and promoted | tube-shaped blood vessels were newly formed
